This is an account of results in paper PMC9937801 (Journal of Pharmaceutical Analysis, 2022).

The test has as its target squalene epoxidase (SQLE) (Homo sapiens, UniProt Q14534). The experiment in a line: SPR. It is filed as binding.

A word on the Kd: it is the equilibrium constant for the complex coming apart. Low values mean tighter binding, high ones weaker binding.

Sequence of squalene epoxidase (SQLE) (Q14534 whole entry): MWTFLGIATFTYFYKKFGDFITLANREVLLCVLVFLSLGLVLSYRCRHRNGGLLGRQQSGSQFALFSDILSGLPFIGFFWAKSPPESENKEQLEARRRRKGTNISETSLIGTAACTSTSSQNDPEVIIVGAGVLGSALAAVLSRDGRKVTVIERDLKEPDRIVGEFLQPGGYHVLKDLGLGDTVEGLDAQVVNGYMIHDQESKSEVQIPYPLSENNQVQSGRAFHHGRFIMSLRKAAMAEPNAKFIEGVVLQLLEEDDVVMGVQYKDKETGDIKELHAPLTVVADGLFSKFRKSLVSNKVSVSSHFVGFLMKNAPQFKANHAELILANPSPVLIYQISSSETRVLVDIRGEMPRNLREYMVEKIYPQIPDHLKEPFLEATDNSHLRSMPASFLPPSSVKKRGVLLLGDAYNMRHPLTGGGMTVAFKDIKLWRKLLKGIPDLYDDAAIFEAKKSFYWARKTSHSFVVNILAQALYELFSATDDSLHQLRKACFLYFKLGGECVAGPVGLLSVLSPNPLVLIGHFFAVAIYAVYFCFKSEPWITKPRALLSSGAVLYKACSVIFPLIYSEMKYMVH

As to `C[C@@H]1CC[C@@]2(OC1)O[C@H]1C[C@H]3[C@@H]4CC=C5C[C@@H](O[C@@H]6O[C@H](CO)[C@@H](O[C@@H]7O[C@@H](CO)[C@H](O)[C@H]7O)[C@H](O)[C@H]6O[C@@H]6O[C@@H](C)[C@H](O)[C@@H](O)[C@H]6O)CC[C@]5(C)[C@H]4CC[C@]3(C)[C@H]1[C@@H]2C` [PPI, Polyphyllin I], the Kd was 26.3 µM.
